In the NIST ThermoML archive (doi:10.1016/j.jct.2017.08.012):
± gives the expanded uncertainty stated by the source.

Conditions: 101.33 kPa, Liquid, Vibrating tube method

mass density (293.15 K): 659.4 ± 4.1 kg/m3
mass density (298.15 K): 654.76 ± 4 kg/m3
mass density (303.15 K): 650.21 ± 4 kg/m3
mass density (308.15 K): 645.43 ± 4 kg/m3
mass density (313.15 K): 640.75 ± 4 kg/m3
Structure (SMILES): CCCCCC [hexane]
